Several values for one entry are separate records, joined by “and”; a condition that tells them apart may be missing. Identical values can stand only once.
Legend:
[1] = target: T1, Serine/threonine-protein kinase TBK1 (Homo sapiens) (UniProt Q9UHD2); conditions: at 1 µM
T1 sequence (whole entry): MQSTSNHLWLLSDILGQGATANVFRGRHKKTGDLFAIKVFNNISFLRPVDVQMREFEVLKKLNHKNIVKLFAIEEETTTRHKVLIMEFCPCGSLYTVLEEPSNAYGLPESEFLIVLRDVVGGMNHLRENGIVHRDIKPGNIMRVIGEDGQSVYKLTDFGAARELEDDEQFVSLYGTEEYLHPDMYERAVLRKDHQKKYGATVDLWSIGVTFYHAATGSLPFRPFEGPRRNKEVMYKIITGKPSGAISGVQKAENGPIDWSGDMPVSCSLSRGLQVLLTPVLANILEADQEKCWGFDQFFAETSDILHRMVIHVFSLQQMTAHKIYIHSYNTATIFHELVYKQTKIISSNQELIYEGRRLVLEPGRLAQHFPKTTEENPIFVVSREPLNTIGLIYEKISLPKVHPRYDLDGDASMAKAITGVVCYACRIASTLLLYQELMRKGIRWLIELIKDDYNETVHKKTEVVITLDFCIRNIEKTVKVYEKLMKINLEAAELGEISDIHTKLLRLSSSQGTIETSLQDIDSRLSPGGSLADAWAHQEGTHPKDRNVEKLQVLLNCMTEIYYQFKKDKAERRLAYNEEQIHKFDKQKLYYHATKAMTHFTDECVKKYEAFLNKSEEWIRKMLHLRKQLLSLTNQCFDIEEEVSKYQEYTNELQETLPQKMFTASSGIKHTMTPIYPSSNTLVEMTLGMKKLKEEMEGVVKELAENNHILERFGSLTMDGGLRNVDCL

[2] = target: T2, Tyrosine-protein kinase Mer (Homo sapiens) (UniProt Q12866); conditions: at 10 µM
T2 sequence (whole entry): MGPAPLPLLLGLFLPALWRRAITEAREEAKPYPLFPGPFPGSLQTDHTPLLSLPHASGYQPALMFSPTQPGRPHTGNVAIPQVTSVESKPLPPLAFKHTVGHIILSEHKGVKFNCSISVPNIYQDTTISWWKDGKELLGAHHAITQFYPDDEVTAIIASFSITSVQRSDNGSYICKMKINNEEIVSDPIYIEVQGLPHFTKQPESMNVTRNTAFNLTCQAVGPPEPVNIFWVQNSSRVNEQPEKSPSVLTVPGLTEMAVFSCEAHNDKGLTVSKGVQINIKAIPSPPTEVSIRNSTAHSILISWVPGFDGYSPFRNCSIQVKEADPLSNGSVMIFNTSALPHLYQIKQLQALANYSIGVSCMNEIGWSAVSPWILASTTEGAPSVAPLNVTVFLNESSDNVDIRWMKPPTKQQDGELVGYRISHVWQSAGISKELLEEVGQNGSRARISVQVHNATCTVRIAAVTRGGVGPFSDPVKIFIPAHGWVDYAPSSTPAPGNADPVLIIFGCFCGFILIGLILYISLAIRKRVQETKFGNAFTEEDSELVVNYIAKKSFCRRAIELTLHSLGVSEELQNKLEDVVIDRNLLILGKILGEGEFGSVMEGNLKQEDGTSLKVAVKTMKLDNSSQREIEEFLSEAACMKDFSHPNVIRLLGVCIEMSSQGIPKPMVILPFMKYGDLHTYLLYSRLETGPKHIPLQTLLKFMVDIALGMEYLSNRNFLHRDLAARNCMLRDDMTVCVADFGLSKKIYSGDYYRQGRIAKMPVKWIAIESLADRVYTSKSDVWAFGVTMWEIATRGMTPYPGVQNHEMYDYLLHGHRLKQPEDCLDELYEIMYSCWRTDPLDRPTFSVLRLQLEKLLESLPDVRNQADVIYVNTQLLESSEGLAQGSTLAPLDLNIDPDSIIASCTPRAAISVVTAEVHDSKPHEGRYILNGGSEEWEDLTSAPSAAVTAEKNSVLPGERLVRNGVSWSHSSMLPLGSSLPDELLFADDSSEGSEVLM

Row | Structure (SMILES) | inhibition [1] | inhibition [2]
1 | CS(=O)(=O)CCNCc1nc(-c2ccc3ncnc(Nc4ccc(OCc5cccc(C(F)(F)F)c5)cc4)c3c2)cs1 | -2% and 1% | -6%
2 | COc1cc2ncn(-c3cc(OCc4ccccc4C(F)(F)F)c(C(=O)N(C)C)s3)c2cc1OC | -1% and 0% | -10%
3 | Cc1nc(-c2ccccc2)n2nc(NCCCN3CCOCC3)ncc12 | 5% and 8% | 39%
4 | O=C1NC(=O)C(c2ccc(Cl)cc2)=C1Nc1ccc(Cl)c(C(=O)O)c1 | -2% and -4% | 62%
5 | COc1ccc2[nH]c3c4[nH]c5ccc(OC)cc5c4c4c(c3c2c1)C(=O)NC4=O | 55% and 56% | 5%
6 | COc1cccc(-n2ncc3c(N/N=C/c4ccc(F)cc4)ncnc32)c1 | 5% and 11% | -2%
7 | CCc1ccc(Oc2nccc(-c3c(-c4ccc(F)cc4)ncn3C3CCNCC3)n2)cc1 | -6% and -3% | -6%
8 | NC(=O)c1ccc(-c2nc(-c3ccccn3)c(-c3ccc4c(c3)OCO4)[nH]2)cc1 | 0% and 5% | 1%
9 | NS(=O)(=O)c1ccc(Nc2ncc(-c3ccccc3)o2)cc1 | 10% and 5% | 2%
10 | COc1cccc(-n2cnc3c(N/N=C/c4ccncc4)ncnc32)c1 | 4% and -1% | -4%
11 | CN1CCC(C(=O)Nc2n[nH]c3nnc(-c4ccccc4)cc23)CC1 | -3% and -7% | 1%
12 | Nc1ncnc2occ(-c3ccc(NC(=O)Nc4cccc(C(F)(F)F)c4)cc3)c12 | 0% and -1% | 43%
13 | CC(C)COC(=O)c1ccc2c(c1)/C(=C/Nc1ccc(S(N)(=O)=O)cc1)C(=O)N2 | 93% and 98% | 0%
14 | CN1CCC(n2cnc(-c3ccc(F)cc3)c2-c2ccnc(Nc3ccccc3)n2)CC1 | 0% and -2% | -1%
15 | COC(=O)c1ccc2c(c1)C(=Cc1cc(Br)c(O)c(Br)c1)C(=O)N2 | 36% | 5%
16 | CN(C)CCCNc1nccc(-c2c(-c3ccc(F)cc3)nn3cc(C(F)(F)F)ccc23)n1 | -1% and 2% | 0%
17 | CS(=O)(=O)Nc1cccc(-c2ccc3c(NC(=O)C4CC4)n[nH]c3c2)c1 | 3% and 5% | 47%
18 | Fc1ccc(-c2nn3ccccc3c2-c2ccncc2)cc1 | -4% and -8% | -2%
19 | O=C(NCC1CC1)c1ccc(-c2cccc(C(=O)NC3CC3)c2)cc1 | 2% and 1% | 0%
20 | CS(=O)(=O)CCNCc1ccc(-c2ccc3ncnc(Nc4ccc(OCc5ccccc5)c(Cl)c4)c3c2)o1 | -2% and 0% | 89%
21 | Fc1cccc(COc2ccc(Nc3ncncc3C#Cc3ccccc3)cc2Cl)c1 | -6% and -7% | -5%
22 | COC(=O)Nc1nc2ccc(Oc3ccc(NC(=O)Nc4cccc(Cl)c4)cc3)cc2[nH]1 | 0% and 2% | 2%
23 | NC(=O)c1sc(-n2cnc3ccc(C(F)(F)F)cc32)cc1OCc1ccccc1Br | 21% and 4% | 101%
24 | Nc1nc(-c2ccc3c(c2)C(=Cc2cc(Br)c(O)c(Br)c2)C(=O)N3)cs1 | 7% and 5% | -8%

Source: ChEMBL document CHEMBL2007661, “Compounds: GSK PKIS; Assays: UNC Frye lab” (2012)
